The source of these data is patent US20230242526A1 (Zentaur Therapeutics International Limited, priority 2020, published 2023).

The nature of series [1]: Pharmacokinetic profiling in mouse (i.v. and i.g.). It is filed as in vivo, male ICR mice. Particulars: male, ICR, plasma; for Vd: read-out: Vdss; for bioavailability: calculated by using the AUC0-t, read-out: F (bioavailability). The protocol:
(1). Kolliphor® HS 15 (formerly regarded as Solutol® HS 15) a non-ionic surfactant, was used as a solubilizer in preparing the parenteral formulations; (2). DMA (N,N-dimethylacetamide); (3). saline; and (4). Tween 80; (5) acetyl nitrile. […] To a glass flask was added 6.0 μmol of the test compound, and 0.265 mL of DMA. The glass flask was vortexed to allow the complete dissolution of the solid. Then 0.265 mL of 30% Solution HS 15 was added to the test compound solution in DMA and was vortexed to allow homogeneous mixing. Lastly, 2.12 mL of saline was added to the mixture in the glass flask. The flask was vortexed to allow homogeneous mixing. […] A clear liquid test sample iv formulation was obtained. An aliquot of 100 μL of the test sample iv formulation was placed into a 1.5 mL EP tube and was kept at 2-8° C. for future sample concentration quantification by HPLC. […] To a glass flask was added 27 μmol of the test compound and 4.047 mL of 0.5% MC with 01. % Tween 80. The flask and the mixture was vortexed followed by sonication for about 15 minutes to allow even distribution of the solids. A white suspension of the text sample was obtained. […] Ltd. Before receiving the test compound formulations, the animals were on fasting overnight. On the day of dosing, the animals were fed at 4h after the dosing. During the tests, the animals were free to drink water. Each test compound was tested in duplicate with different routes of administration: in one set of tests, mice received test compounds by iv injection route, and in the other set of tests, mice received the test compounds by IG administration. The schedules of the test for each mouse are illustrated in Table 5 below. [table] 100 μL blood sample was taken from the veins in animal eyelid. The whole blood sample was placed in anticoagulation tubes treated with EDTA-K2. The whole blood sample was centrifuged at 1500 g for 10 min. The plasma at the upper level was collected into test tubes. An aliquot of 10 μL of sample was added with 100 μL ACN which contains of Verapamil, 5 ng/mL, Glibenclamide, 50 ng/mL, Tolbutamide, 200 ng/mL and Diclofenac, 200 ng mL-1 for protein precipitation. The mixture was vortexed for 1 min, then centrifuged at 13000 rpm for 8 min. Then 70 μL of supernatant was added with 70 μL water, then vortexed for 10 min. An aliquot of 5 μL of the mixture was injected into the LC-MS/MS system. LC-MS/MS (API 4000: LC-MS-MS-001), column: […] Sample injection volume is 5 μL. Flow rate is 0.8 mL/min. The detection wavelength is set at 254 nm.

Series [2] concerns human breast squamous HCC1806 cell line. Nature of the series: CyQUANT Direct cell proliferation assay, HCC1806. The series is classed as cell-based. Particulars: HCC1806, 168 h, 7 days. An excerpt: The human ovarian carcinoma OVCAR3 cell line (ATCC HTB-161™) or human breast squamous HCC1806 cell line (ATCC CRL 2335) were obtained from American Type Culture Collection (ATCC), and maintained in culture media according to the supplier's specification.
The CyQUANT® Direct Cell Proliferation Assay Kit (Invitrogen™, catalog No. G35012) was utilized to test the inhibitory activities of the CDK2 inhibitors described in this disclosure against OVCAR3 or HCC1806 tumor cells.
CyQUANT® Direct Cell Proliferation Assay: The spent medium from the purchased tumor cell culture plate was removed and the tumor cells were washed with PBS buffer twice. Trypsin (VWR catalog No. 0458-25G) was added to digest the tumor cells until tumor cells appeared round shaped and to dissociate adherent cells from the plate wall in which they are being cultured. Then RPMI-1640 media (HCC1806, Gibco™ catalog No, A10491-01) with 10% fetal bovine serum (FBS) (Hyclone™ catalog No. SV30160.03), or RPMI-1640 media (OVCAR-3, Gibco™ catalog No. 10370-021) with 20% FBS and 0.01 mg/mL insulin was added to stop the trypsin digestion reaction. The tumor cells were lightly agitated with a liquid transfer pipette to cause tumor cells suspended in the culture media. The cells were counted. The complete medium was used to prepare tumor cell suspension.
OVCAR3 or HCC1806 cells were seeded at 40 μL/well in 384-well plates in growth media containing FBS and cultured 24 hours in the incubator at 37° C., 5% CO2. […] Compound solutions were added by Agilent Bravo liquid handler. […] The control wells contained the growth medium having 0.1% DMSO. Cells were incubated at 37° C., 5% CO2 for 7 days.
CYQUANT Direct Cell Proliferation Assay (Molecular Probes, Eugene, Oreg.) was then performed following manufacturer's instructions to prepare the detection reagents. 50 μL of detection reagent was aliquot and added to each well and the cells were incubated at 37° C. for 1 hr.
The cell culture plates were placed on TECAN M1000 microplate reader to detect the fluorescence intensity at 508 nm excitation and 527 nm emission wavelengths. Graphpad Prism 6.0 software was used for data processing, preparing cell growth curve, calculating percentage inhibition on cell growth. IC50 values were calculated by concentration-response curve fitting utilizing a four-parameter analytical method using GraphPad Prism software.

pIC50: −log10 of the molar value.

Take `Cc1cc2cnc(NC3CCN(S(C)(=O)=O)CC3)nc2n([C@@H]2CCC[C@@]2(C)O)c1=O` [Comp. 4, (−)-8-(2-hydroxy-2-methylcyclopentyl)-6-methyl-2-((1-(methylsulfonyl)piperidin-4-yl)amino)pyrido[2,3-d]pyrimidin-7(8H)-one, reference compound]: in series [1] (iv, i.v. 5 mg/kg), the AUC(0-t) (usually exposure summed from dosing to a finite time, without extrapolation to infinity) turned out to be 967 ng·h/mL; the C0 is 8300 ng/mL; the clearance (usually the volume of plasma or blood freed of the substance per unit of time) was found to be 86.1 mL/min/kg; the half-life – broadly, the time in which the quantity being followed falls by half – is 11.7 min. Also, the Vd in series [1] (iv, i.v. 5 mg/kg) was found to be 0.611 L/kg. Besides, in series [1] (po, i.g. 30 mg/kg), the AUC(0-t) worked out at 245 ng·h/mL, the concentration peaked (Cmax) at 211 ng/mL, the Tmax (usually the time at which the peak concentration occurs) was 15 min and the half-life was 134 min. Further, the bioavailability (as a rule, the share of a dose that reaches the circulation, judged against a reference dose that is usually intravenous) in series [1] (po, i.g. 30 mg/kg) was 4.2%. Moreover, the pIC50 – broadly, the IC50 on a negative log10 scale, so that one unit is a factor of ten – in series [2] was 7.38.

In series [1] (iv, i.v. 5 mg/kg), `C[C@@]1(O)CCC[C@H]1n1c(=O)c(C(F)F)cc2cnc(NC3CCN(S(C)(=O)=O)CC3)nc21` [Comp. 5, (−)-6-(difluoromethyl)-8-((1R,2R)-2-hydroxy-2-methylcyclopentyl)-2-((1-(methylsulfonyl)piperidin-4-yl)amino)pyrido[2,3-d]pyrimidin-7(8H)-one, reference compound] gave an AUC(0-t) of 1360 ng·h/mL, a C0 of 5020 ng/mL, a clearance of 61.2 mL/min/kg and a half-life of 22 min. Also, the Vd in series [1] (iv, i.v. 5 mg/kg) stood at 1 L/kg. Further, in series [1] (po, i.g. 30 mg/kg), the AUC(0-t) amounted to 1190 ng·h/mL, the concentration peaked (Cmax) at 1040 ng/mL, the Tmax amounted to 15 min and the half-life is 166 min. Further, the bioavailability in series [1] (po, i.g. 30 mg/kg) was 14.6%. Further, in series [2], the pIC50 was 7.28.

In series [2], `[2H]C(F)(F)c1cc2cnc(NC3CCN(S(C)(=O)=O)CC3)nc2n([C@@H]2CCC[C@@]2(C)O)c1=O` [Comp. 28, (−)-6-(difluoromethyl-d)-8-((1R,2R)-2-hydroxy-2-methylcyclopentyl)-2-((1-(methylsulfonyl)piperidin-4-yl)amino)pyrido[2,3-d]pyrimidin-7(8H)-one] showed a pIC50 of 7.12.

Turning to `[2H]C([2H])([2H])c1cc2cnc(NC3CCN(S(C)(=O)=O)CC3)nc2n([C@@H]2CCC[C@@]2(C)O)c1=O` [Comp. 37, (−)-8-((1R,2R)-2-hydroxy-2-methylcyclopentyl)-6-(methyl-d3)-2-((1-(methylsulfonyl)piperidin-4-yl)amino)pyrido[2,3-d]pyrimidin-7(8H)-one], in series [1] (iv, i.v. 5 mg/kg), the area under the curve AUC(0-t) was determined as 1290 ng·h/mL, the C0 was determined as 7420 ng/mL, the clearance was found to be 64.7 mL/min/kg and the half-life is 19.8 min. In addition, the Vd in series [1] (iv, i.v. 5 mg/kg) came to 0.703 L/kg. For the same compound, in series [1] (po, i.g. 30 mg/kg), the AUC(0-t) was 605 ng·h/mL; the peak concentration (Cmax) – broadly, the maximum level reached in the sampled fluid or tissue – worked out at 522 ng/mL; the Tmax is 15 min; the half-life was 103 min. The bioavailability in series [1] (po, i.g. 30 mg/kg) is 7.8%. The pIC50 in series [2] is 7.46.
